{"source": "patent US5446026A", "about": "“Potent non-opiate analgesic” (Advanced Peptides & Biotechnology Sciences, priority 1993, dated 1995)", "key": {"[1]": {"settings": "periaqueductal gray administration; cited from earlier work"}, "[2]": {"assay": "analgesia after subcutaneous injection (tail-flick and hot plate tests)", "type": "in vivo, rodent"}, "bone": {"test_system": "bone", "assay": "uptake of calcium into bone", "settings": "under the conditions tested", "description": "(§1) Studies of analgesia in monkeys is underway and following animal toxicity human trials should be undertaken. […] We would expect that this peptide, like other peptide analogs of naturally occurring modulatory substances, would be potent in quite low (milligram) doses in humans and should be able to alleviate quite severe pain even in these low doses. [drawing 1] R1, R2 =OH: Cholic Acid 89.010a R1 =H, R2 =OH: Chenodeoxycholic Acid 89.010b R1 =OH, R2 =H: Deoxycholic Acid [drawing 2] PEPTIDE-Pro-Arg-Thr-Asn-Thr-Gly-Ser-Gly-Thr-Pro-amide."}, "[3]": {"settings": "rats; cited from earlier work"}, "[4]": {"settings": "cited from earlier work"}, "calcitonin receptor": {"target": "T1, calcitonin receptor (Homo sapiens, UniProt P30988)", "T1 sequence (P30988 25-474)": "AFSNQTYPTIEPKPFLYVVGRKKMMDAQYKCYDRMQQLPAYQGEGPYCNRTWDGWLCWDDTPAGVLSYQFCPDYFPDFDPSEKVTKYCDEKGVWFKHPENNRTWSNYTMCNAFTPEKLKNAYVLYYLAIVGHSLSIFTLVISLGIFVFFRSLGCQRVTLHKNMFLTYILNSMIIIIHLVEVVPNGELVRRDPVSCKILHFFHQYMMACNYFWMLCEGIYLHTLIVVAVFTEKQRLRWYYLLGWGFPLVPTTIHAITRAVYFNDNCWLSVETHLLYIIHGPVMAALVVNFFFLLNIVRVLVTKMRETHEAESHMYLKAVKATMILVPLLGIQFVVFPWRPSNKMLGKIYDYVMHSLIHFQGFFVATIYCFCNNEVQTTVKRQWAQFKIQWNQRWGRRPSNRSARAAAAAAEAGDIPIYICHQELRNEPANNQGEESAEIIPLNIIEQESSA", "assay": "in vitro receptor binding, displacement of 125-I calcitonin"}, "[5]": {"target": "T2, 69 Kd receptor molecule (calcitonin receptor) (Homo sapiens, UniProt P30988)", "T2 sequence (P30988 25-474)": "T1 sequence (P30988 25-474)", "assay": "crosslinking / SDS-PAGE in vitro receptor binding"}, "[6]": {"assay": "three classical tests of rodent analgesia (hot plate, paw pressure, tail flick)", "type": "in vivo", "settings": "paw pressure and tail flick tests (FIG. 4)"}, "[7]": {"assay": "observation of rodent behavior, righting reflex, inclined plane", "type": "in vivo", "description": "as §1"}}, "note": "Where two headings read alike, the source gives them in different places. No end group written: not given here."}
{"molecule": "CC(C)C[C@H](NC(=O)[C@H](Cc1ccccc1)NC(=O)CNC(=O)CNC(=O)[C@@H](N)Cc1ccc(O)cc1)C(=O)O", "note": "[enkephalin]", "values": [{"measurement": "analgesia", "setting": "[1]", "result": "weak and transient"}]}
{"molecule": "CN1CC[C@]23c4c5ccc(O)c4O[C@H]2[C@@H](O)C=C[C@H]3[C@H]1C5", "note": "[morphine, reference compound]", "values": [{"measurement": "analgesia at two hours, the last time point tested", "setting": "[2]", "result": "has already returned to baseline"}]}
{"molecule": "CC(C)C[C@H](NC(=O)[C@H](CCCCN)NC(=O)CNC(=O)[C@H](CC(C)C)NC(=O)[C@@H](NC(=O)[C@@H]1CSSC[C@H](N)C(=O)N[C@@H](CO)C(=O)N[C@@H](CC(N)=O)C(=O)N[C@@H](CC(C)C)C(=O)N[C@@H](CO)C(=O)N[C@@H]([C@@H](C)O)C(=O)N1)C(C)C)C(=O)N[C@@H](CO)C(=O)N[C@@H](CCC(N)=O)C(=O)N[C@@H](CCC(=O)O)C(=O)N[C@@H](CC(C)C)C(=O)N[C@@H](Cc1c[nH]cn1)C(=O)N[C@@H](CCCCN)C(=O)N[C@@H](CC(C)C)C(=O)N[C@@H](CCC(N)=O)C(=O)N[C@H](C(=O)N[C@@H](Cc1ccc(O)cc1)C(=O)N1CCC[C@H]1C(=O)N[C@@H](CCCNC(=N)N)C(=O)N[C@H](C(=O)N[C@@H](CC(N)=O)C(=O)N[C@H](C(=O)NCC(=O)N[C@@H](CO)C(=O)NCC(=O)N[C@H](C(=O)N1CCC[C@H]1C(N)=O)[C@@H](C)O)[C@@H](C)O)[C@@H](C)O)[C@@H](C)O", "note": "[salmon calcitonin, reference compound]", "values": [{"measurement": "uptake of calcium into bone", "setting": "bone", "result": "profound response"}]}
{"molecule": "Calcitonin", "values": [{"measurement": "analgesic activity", "setting": "[3]", "result": "extremely potent analgesic"}, {"measurement": "penetration into the brain", "setting": "[4]; human, in vivo", "result": "does not penetrate into the brain"}, {"measurement": "side effects", "setting": "[4]; human, in vivo", "result": "No important side effects"}, {"measurement": "analgesic activity", "setting": "[4]; terminal cancer patients, injection into the subarachnoid space", "result": "extremely potent analgesic"}]}
{"molecule": "Pro-Arg-Thr-Asn-Thr-Gly-Ser-Gly-Thr-Pro-NH2 (PRTNTGSGTP-NH2) [PD89.010b, modified calcitonin decapeptide]", "values": [{"measurement": "in vitro receptor binding as human calcitonin analog", "setting": "calcitonin receptor; displacement of 125-I human calcitonin (FIG. 2A)", "result": "potent"}, {"measurement": "in vitro receptor binding as salmon calcitonin analog", "setting": "calcitonin receptor; displacement of 125I salmon calcitonin (FIG. 2B)", "result": "weak"}, {"measurement": "displacement of iodinated salmon calcitonin from the 69 Kd receptor molecule", "setting": "[5]; at 1 μM (FIG. 3A)", "result": "completely displaces"}, {"measurement": "displacement of iodinated human calcitonin from the 69 Kd receptor molecule", "setting": "[5]; at 1 μM (FIG. 3B)", "result": "completely displaces"}, {"measurement": "analgesic responses", "setting": "[6]", "result": "significant and profound analgesic responses"}, {"measurement": "onset of analgesia compared with morphine", "setting": "[2]", "result": "much more rapid onset of analgesia"}, {"measurement": "analgesia, tail-flick test", "setting": "[2]; one quarter the molar equivalent of morphine (FIG. 5A)", "result": "profound and long lived analgesia"}, {"measurement": "analgesia, hot plate test", "setting": "[2]; one quarter the molar equivalent of morphine (FIG. 5B)", "result": "profound and long lived analgesia"}, {"measurement": "analgesia at two hours, the last time point tested", "setting": "[2]", "result": "still is showing significant analgesia"}, {"measurement": "behavior and balance on an inclined plane", "setting": "[7]; in vivo", "result": "remained unchanged"}, {"measurement": "righting reflex", "setting": "[7]; in vivo", "result": "remained unchanged"}, {"measurement": "behavioral incapacitation effects", "setting": "[7]; trained observers of rodent behavior", "result": "no obvious behavioral incapacitation effects"}, {"measurement": "uptake of calcium into bone", "setting": "bone", "result": "does not appear to enhance"}]}
